Results as given in ChEMBL document CHEMBL1139426, “Design and synthesis of a metabolically stable and potent antitussive agent, a novel delta opioid receptor antagonist, TRK-851” (Bioorg Med Chem, 2008).
The source made the active and inactive calls. The rule behind the calls is not given here.

How the values were obtained:
[1] = Metabolic stability in human liver microsomes assessed as time course of compound elimination at 1 uM by HPLC; format: ADME, Microsome; conditions: read-out: Ke (converted)
[2] = system: Rattus norvegicus; assay: Antitussive activity in sc dosed Sprague-Dawley rat assessed as reduction of capsaicin-induced coughing for 3 mins administered 30 mins before capsaicin challenge relative to control; format: functional
[3] = system: Rattus norvegicus; assay: Antitussive activity in po dosed Sprague-Dawley rat assessed as inhibition of capsaicin-induced coughing for 3 mins administered 60 mins before capsaicin challenge relative to control; format: functional, organism-based
[4] = molecular target: Delta-type opioid receptor (Mus musculus, UniProt P32300); assay: Antagonist activity at delta opioid receptor in ddy mouse vas deferens assessed as inhibition of DPDPE-induced electrically-stimulated contraction; format: functional, tissue-based
[5] = molecular target: Kappa-type opioid receptor (Mus musculus, UniProt P33534); assay: Antagonist activity at kappa opioid receptor in ddy mouse vas deferens assessed as inhibition of U-50,488H-induced electrically-stimulated contraction; format: functional, tissue-based; conditions: read-out: pA2 (converted)
[6] = molecular target: Delta-type opioid receptor (Mus musculus) (UniProt P32300); assay: Antagonist activity at delta opioid receptor in ddy mouse vas deferens assessed as inhibition of DPDPE-induced electrically-stimulated contraction at 10 nM pretreated for 20 mins; format: functional, tissue-based
[7] = molecular target: Kappa-type opioid receptor (Mus musculus) (UniProt P33534); assay: Antagonist activity at kappa opioid receptor in ddy mouse vas deferens assessed as inhibition of U-50,488H-induced electrically-stimulated contraction at 10 nM pretreated for 20 mins; format: functional, tissue-based
[8] = molecular target: Mu-type opioid receptor (Mus musculus) (UniProt P42866); assay: Antagonist activity at mu opioid receptor in ddy mouse vas deferens assessed as inhibition of morphine-induced electrically-stimulated contraction at 10 nM pretreated for 20 mins; format: functional, tissue-based
[9] = species: Mus musculus; assay: Selectivity for delta opioid receptor over mu opioid receptor in ddy mouse vas deferens; format: tissue-based
[10] = species: Mus musculus; assay: Selectivity for delta opioid receptor over kappa opioid receptor in ddy mouse vas deferens; format: tissue-based
[11] = molecular target: Delta-type opioid receptor (Mus musculus) (UniProt P32300); assay: Antagonist activity at delta opioid receptor in ddy mouse vas deferens assessed as ratio of DPDPE concentration that elicit equal response in absence and presence of compound; format: functional
[12] = molecular target: Kappa-type opioid receptor (Mus musculus) (UniProt P33534); assay: Antagonist activity at kappa opioid receptor in ddy mouse vas deferens assessed as ratio of U-50,488H concentration that elicit equal response in absence and presence of compound; format: functional
[13] = molecular target: Mu-type opioid receptor (Mus musculus) (UniProt P42866); assay: Antagonist activity at mu opioid receptor in ddy mouse vas deferens assessed as ratio of morphine concentration that elicit equal response in absence and presence of compound; format: functional
[14] = system: Rattus norvegicus; assay: Antitussive activity in ip dosed Sprague-Dawley rat assessed as reduction of capsaicin-induced coughing for 3 mins administered 30 mins before capsaicin challenge relative to control; format: functional
[15] = system: Rattus norvegicus; assay: Antitussive activity in po dosed rat assessed as reduction of coughing; format: functional

Chain of Kappa-type opioid receptor (Mus musculus) (P33534 whole entry): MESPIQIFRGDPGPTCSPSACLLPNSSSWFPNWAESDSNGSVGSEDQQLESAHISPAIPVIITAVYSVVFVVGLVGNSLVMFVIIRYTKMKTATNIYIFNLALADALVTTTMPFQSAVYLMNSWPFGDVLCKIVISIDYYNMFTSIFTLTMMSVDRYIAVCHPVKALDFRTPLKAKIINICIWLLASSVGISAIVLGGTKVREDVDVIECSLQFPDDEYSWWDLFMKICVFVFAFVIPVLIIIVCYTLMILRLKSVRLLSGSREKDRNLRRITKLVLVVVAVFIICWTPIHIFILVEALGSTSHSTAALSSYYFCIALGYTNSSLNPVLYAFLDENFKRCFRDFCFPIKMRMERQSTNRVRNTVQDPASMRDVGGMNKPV
Chain of Mu-type opioid receptor (Mus musculus) (P42866 whole entry): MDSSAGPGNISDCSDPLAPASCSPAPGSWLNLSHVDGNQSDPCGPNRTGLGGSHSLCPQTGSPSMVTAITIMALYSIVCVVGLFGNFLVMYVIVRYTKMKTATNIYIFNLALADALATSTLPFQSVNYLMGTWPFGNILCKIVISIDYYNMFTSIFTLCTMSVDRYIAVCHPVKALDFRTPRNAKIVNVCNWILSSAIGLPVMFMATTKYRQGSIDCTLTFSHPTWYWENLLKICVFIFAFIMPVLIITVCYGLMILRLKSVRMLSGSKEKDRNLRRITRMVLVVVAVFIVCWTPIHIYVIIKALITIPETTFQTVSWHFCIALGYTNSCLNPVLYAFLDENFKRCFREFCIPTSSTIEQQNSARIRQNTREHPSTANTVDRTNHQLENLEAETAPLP
Chain of Delta-type opioid receptor (Mus musculus) (P32300 whole entry): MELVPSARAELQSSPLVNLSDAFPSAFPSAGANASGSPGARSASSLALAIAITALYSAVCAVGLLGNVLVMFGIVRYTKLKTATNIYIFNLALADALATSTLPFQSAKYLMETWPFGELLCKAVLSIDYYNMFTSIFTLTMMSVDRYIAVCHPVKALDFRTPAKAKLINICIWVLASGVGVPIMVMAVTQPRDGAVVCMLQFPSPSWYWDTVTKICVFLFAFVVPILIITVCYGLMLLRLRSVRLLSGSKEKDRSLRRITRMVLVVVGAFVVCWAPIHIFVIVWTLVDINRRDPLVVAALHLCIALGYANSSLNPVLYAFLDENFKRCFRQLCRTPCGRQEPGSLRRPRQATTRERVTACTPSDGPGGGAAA
Chain of Delta-type opioid receptor (P32300 whole entry): as above
Chain of Kappa-type opioid receptor (P33534 whole entry): as the sequence (P33534 whole entry) above

SMILES | k el at 1 µM [1] [s⁻¹] | ED50 [2] [µg/kg] | other results
COc1ccc2c3c1O[C@H]1c4c(c5cc(Br)cc6c5n4CCC6)C[C@@]4(O)[C@@H](C2)N(CC2CC2)CC[C@]314 | 0.0044 | – | –
COc1ccc2c3c1c1c(n3CCC2)[C@@H]2Oc3c(O)ccc4c3[C@@]23CCN(CC2CC2)[C@H](C4)[C@]3(O)C1 | 0.000475 | 8.67 | –
Oc1ccc2c3c1O[C@H]1c4c(c5c(Br)ccc6c5n4CCC6)C[C@@]4(O)[C@@H](C2)N(CC2CC2)CC[C@]314 | 0.000618 | 94.6 | –
COc1cc2c3c(c1)c1c(n3CCC2)[C@@H]2Oc3c(O)ccc4c3[C@@]23CCN(CC2CC2)[C@H](C4)[C@]3(O)C1 | 0.000552 | 2 | –
COc1ccc2c3c1O[C@H]1c4c(c5c(C(F)(F)F)ccc6c5n4CCC6)C[C@@]4(O)[C@@H](C2)N(CC2CC2)CC[C@]314 | 0.00228 | – | –
Oc1ccc2c3c1O[C@H]1c4c(c5cccc6c5n4CCC6)C[C@@]4(O)[C@@H](C2)N(CC2CC2)CC[C@]314 | 0.000415 | 0.2 | –
Oc1ccc2c3c1O[C@H]1c4c(c5cc(OC(F)(F)F)cc6c5n4CCC6)C[C@@]4(O)[C@@H](C2)N(CC2CC2)CC[C@]314 | 0.000152 | > 1000 | –
COc1ccc2c3c1O[C@H]1c4c(c5c(OC)ccc6c5n4CCC6)C[C@@]4(O)[C@@H](C2)N(CC2CC2)CC[C@]314 | 0.00333 | – | –
COc1ccc2c3c1O[C@H]1c4c(c5c(C)ccc6c5n4CCC6)C[C@@]4(O)[C@@H](C2)N(CC2CC2)CC[C@]314 | 0.00595 | – | –
COc1ccc2c3c1O[C@H]1c4c(c5cccc6c5n4CCO6)C[C@@]4(O)[C@@H](C2)N(CC2CC2)CC[C@]314 | 0.00105 | – | –
Oc1ccc2c3c1O[C@H]1c4c(c5ccc(Br)c6c5n4CCC6)C[C@@]4(O)[C@@H](C2)N(CC2CC2)CC[C@]314 | 0.000363 | 27.4 | –
Oc1ccc2c3c1O[C@H]1c4c(c5cc(C(F)(F)F)cc6c5n4CCC6)C[C@@]4(O)[C@@H](C2)N(CC2CC2)CC[C@]314 | 0.00027 | > 1000 | –
Oc1ccc2c3c1O[C@H]1c4c(c5cccc6c5n4CCO6)C[C@@]4(O)[C@@H](C2)N(CC2CC2)CC[C@]314 | 0.000557 | 14 | –
Oc1ccc2c3c1O[C@H]1c4c(c5cc(F)cc6c5n4CCC6)C[C@@]4(O)[C@@H](C2)N(CC2CC2)CC[C@]314 | 0.00029 | 1.7 | Activity [3]: Dose-dependent effect; IC50 [4]: 8800 nM; Kb ([4]; read-out: pA2 (converted)): 1.45 nM; Kb [5]: 331 nM; Activity [6]: inactive; Activity [7]: inactive; Activity [8]: inactive; Selectivity ratio [9]: > 100; Selectivity ratio [10]: > 100; Ratio [11]: 7.87; Ratio [12]: 1.03; Ratio [13]: 0.98
COc1ccc2c3c1O[C@H]1c4c(c5cccc6c5n4CCC6(C)C)C[C@@]4(O)[C@@H](C2)N(CC2CC2)CC[C@]314 | 0.00103 | 12.8 | –
Oc1ccc2c3c1O[C@H]1c4[nH]c5ccccc5c4C[C@@]4(O)[C@@H](C2)N(CC2CC2)CC[C@]314 [NALTRINDOLE] | – | – | ED50 [14]: 104 µg/kg
Oc1ccc2c3c1O[C@H]1c4c(c5cc(Br)cc6c5n4CCC6)C[C@@]4(O)[C@@H](C2)N(CC2CC2)CC[C@]314 | 0.000252 | 5.05 | –
COc1ccc2c3c(n4c2c1CCC4)[C@@H]1Oc2c(O)ccc4c2[C@@]12CCN(CC1CC1)[C@H](C4)[C@]2(O)C3 | 0.000437 | 54.2 | –
Oc1ccc2c3c1O[C@H]1c4c(c5cc(Cl)cc6c5n4CCC6)C[C@@]4(O)[C@@H](C2)N(CC2CC2)CC[C@]314 | 0.000295 | – | ED50 [14]: 78.4 µg/kg
COc1ccc2c3c1O[C@H]1c4c(c5cc(F)cc6c5n4CCC6)C[C@@]4(O)C(C2)N(CC2CC2)CC[C@]314 | 0.00647 | – | ED50 [14]: 4.73 µg/kg
Cc1ccc2c3c1c1c(n3CCC2)[C@@H]2Oc3c(O)ccc4c3[C@@]23CCN(CC2CC2)[C@H](C4)[C@]3(O)C1 | 0.000565 | – | –
Oc1ccc2c3c1O[C@H]1c4c(c5ccc(Cl)c6c5n4CCC6)C[C@@]4(O)[C@@H](C2)N(CC2CC2)CC[C@]314 | 0.000483 | 13.8 | –
Oc1ccc2c3c1O[C@H]1c4c(c5c(Cl)ccc6c5n4CCC6)C[C@@]4(O)[C@@H](C2)N(CC2CC2)CC[C@]314 | 0.00045 | 3.5 | –
CC1(C)CCn2c3c(c4cccc1c42)C[C@@]1(O)[C@H]2Cc4ccc(O)c5c4[C@@]1(CCN2CC1CC1)[C@H]3O5 | 0.00126 | – | –
Oc1ccc2c3c1O[C@H]1c4c(c5c(C(F)(F)F)ccc6c5n4CCC6)C[C@@]4(O)[C@@H](C2)N(CC2CC2)CC[C@]314 | 0.000278 | 0.355 | –
COc1ccc2c3c1O[C@H]1c4c(c5cccc6c5n4CCC6)C[C@@]4(O)[C@@H](C2)N(CC2CC2)CC[C@]314.CS(=O)(=O)O | 0.00568 | – | ED50 [14]: 2.07 µg/kg; ED50 [15]: 6.4 µg/kg
